We go through 7 molecules from PubChem BioAssay (NCI).

Molecules are shown by their SMILES.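 Where inhibition never reached the appropriate level, the endpoint shown equals the highest concentration tested. Otherwise, values were interpolated linearly from a five-concentration, 48-hour dose response in 96-well plates. At the TGI there is no net growth.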

Some test systems named below: DLD-1 colon; SR leukemia; OVCAR-3 ovarian; XF 498 CNS; DMS 114 small cell lung; SNB-19 CNS; A498 renal; RPMI-8226 leukemia; M19-MEL melanoma; NCI/ADR-RES ovarian; IGROV1 ovarian; KM20L2 colon.
Common to all, as to experiment: growth of human tumour cells (NCI), 48 h

`O=C1C(Cl)=C(N2CCN(C3=C(Cl)C(=O)c4ccccc4C3=O)CC2)C(=O)c2ccccc21`: the TGI in the assay on DLD-1 colon was 0.937 µM; in the assay with SR leukemia, 0.458 µM; in the assay with OVCAR-3 ovarian it was 3.02 µM; in the assay with XF 498 CNS, 2.66 µM; with DMS 114 small cell lung, 2.64 µM; in the assay on SNB-19 CNS, 28.7 µM. In addition, the TGI with A498 renal is 13.7 µM; with RPMI-8226 leukemia, 14 µM; in the assay on M19-MEL melanoma, 2.91 µM; in the assay with NCI/ADR-RES ovarian it was 3.51 µM; in the assay with IGROV1 ovarian it was 4.11 µM; in the assay with KM20L2 colon, 14 µM.
For `c1ccc(C2C3=C(Nc4ncnn42)c2ccccc2C3)cc1` (stereo not given), the TGI in the assay on DLD-1 colon was 38 µM; in the assay on OVCAR-3 ovarian, 30.3 µM; in the assay with XF 498 CNS, over 100 µM; in the assay with DMS 114 small cell lung, 24.1 µM; in the assay with SNB-19 CNS, over 100 µM; in the assay with A498 renal, over 100 µM. Also, the TGI was over 100 µM in the assay on RPMI-8226 leukemia, over 100 µM in the assay with M19-MEL melanoma, over 100 µM in the assay with IGROV1 ovarian and 24.5 µM in the assay on KM20L2 colon.
Regarding `COC(=O)C(CCC#N)(CCC#N)C(=O)OC`, the TGI in the assay on SR leukemia, with OVCAR-3 ovarian, in the assay on XF 498 CNS, in the assay on DMS 114 small cell lung, with SNB-19 CNS and in the assay with RPMI-8226 leukemia was over 100 µM each time. Besides, the TGI in the assay with M19-MEL melanoma, in the assay with IGROV1 ovarian and in the assay on KM20L2 colon was over 100 µM throughout.
Turning to `COC(=O)CC(C(C(=O)OC)C(=O)OC)N1C(=O)OCC1c1ccccc1` (stereo not given), the TGI in the assay on DLD-1 colon, in the assay with OVCAR-3 ovarian, in the assay on XF 498 CNS, with SNB-19 CNS, in the assay on A498 renal and in the assay on RPMI-8226 leukemia was over 100 µM in each case. Moreover, the TGI in the assay with M19-MEL melanoma, in the assay with IGROV1 ovarian and with KM20L2 colon was over 100 µM throughout.
For the molecule `CC1=C(O)C(=O)[C@@H]2O[C@@H]2C1=O`, the TGI with DLD-1 colon is 21.7 µM; with OVCAR-3 ovarian it was 17.4 µM; with XF 498 CNS, 23.3 µM; with DMS 114 small cell lung, 28.4 µM; in the assay on SNB-19 CNS, 115 µM; with A498 renal, 17.1 µM. The TGI with RPMI-8226 leukemia amounted to 16.5 µM; in the assay on M19-MEL melanoma it was 28.9 µM; in the assay on NCI/ADR-RES ovarian it was 44.9 µM; with IGROV1 ovarian, 48.4 µM; in the assay on KM20L2 colon, 49.4 µM.
For the molecule `O=c1[nH]n2c(=O)cc[nH]c2c1-c1nnns1`, the TGI with DLD-1 colon, in the assay on SR leukemia, with OVCAR-3 ovarian, with XF 498 CNS, in the assay with DMS 114 small cell lung and in the assay with SNB-19 CNS was over 100 µM throughout. Also, the TGI in the assay with A498 renal, in the assay with RPMI-8226 leukemia, in the assay on M19-MEL melanoma, in the assay on IGROV1 ovarian and with KM20L2 colon was over 100 µM each time.
`COc1ccc(C(C#N)NNC(=O)c2ccccc2O)cc1OC` (stereo not given): the TGI with DLD-1 colon is over 100 µM; in the assay with SR leukemia it was over 100 µM; with OVCAR-3 ovarian it was over 100 µM; in the assay with DMS 114 small cell lung, 12.7 µM; in the assay with RPMI-8226 leukemia, over 100 µM; with M19-MEL melanoma it was over 100 µM. Moreover, the TGI with IGROV1 ovarian is over 100 µM; with KM20L2 colon it was 62.5 µM.
